Patent EP2712863B1, “Novel inhibitors of bacterial biofilms and related methods” (Sequoia Sciences, Inc., priority 2012, dated 2014)
In brackets after ≈: the same amount, converted by molar mass. Read-outs that look alike come from different tables or passages of the source.

Tests used:
P. aeruginosa = assay: Biofilm growth assay (spreading biofilm on semi-solid agar); type: cell-based; details: for IC85: Pseudomonas aeruginosa
Description: (§1) "Biofilm Growth Assay" refers to an assay performed on semi-solid agar surface where the bacteria collectively move out from an inoculation point. To those skilled in the art, the act of bacteria collectively moving out from an inoculation point on a semi-solid surface may be referred to as swarming or a spreading biofilm. (Anderson, et al Microbiology, 2003, 149, 37-46; Daniels, et al. FEMS Microbiology Reviews, 2004, 28, 261-289). The procedure to perform this assay is described in detail in the Examples. This type of surface motility by bacteria has been reported in the literature by those skilled in the art.
(§2) The biofilm growth assay was carried out to measure swarming or biofilm spreading on semi-solid agar media in round plates (for example, 100 × 15 mm), also referred to as Petri dishes. For E. coli, the plates contained LB medium with 0.6% agar and 0.5% glucose. P. aeruginosa plates were made with M8 agar supplemented with 0.2% glucose, 100 µM CaCl2, 1 mM MgSO4, and 0.5% Casamino acids. The agar plates of this assay consisted of 0.4% to 0.7% agar (Bacto or Noble agar), although other media may also be used as described in the literature and known to those skilled in the art. Test compounds at the desired concentration were added to the cooled, autoclaved media. Portions of the media were then poured into the plates (20 mL/plate), and the plates allowed to dry at room temperature for approximately 3 to 4 hours. Alternatively, however, plates may be dried in a laminar flow hood for approximately fifteen to twenty minutes. Overnight cultures were grown in a 37°C shaker in LB (E. coli) or TSB (P. aeruginosa). Plates were inoculated by placing 5 µL of the appropriate overnight culture in the centers of the plates. The plates then were incubated overnight at 37°C. The area of the zone of spreading bacteria was then measured and replicates are averaged. Percent inhibition was calculated as 100 × (area without compound - area with compound)/(area without compound). An active compound was considered that which reduces the area of the spreading biofilm compared to negative controls by greater than or equal to 85%. The values shown in Table 1 are the concentrations of compounds (µg/ml) tested in the biofilm growth assay that reduce the area of the spreading biofilm compared to negative controls by greater than or equal to 85% unless noted differently in Table 1. A > ("greater than" symbol) as used in Table 1 is well understood to those skilled in the art as an indication that the listed concentration was not effective at this concentration.
(§3) All of the compounds shown in Tables 2, 3, 4, and 5, below, were prepared semi-synthetically from oleanolic acid, except for Compounds 2 and 3. Compound 2 was prepared from ursolic acid. Compound 3 was prepared from hederagenin, but could also be prepared from an oleanolic acid analog with a hydroxyl at C23 or C24. These compounds were tested in the spreading biofilm assay according to the methods detailed in Example I, above. The values shown in Tables 2, 3, 4, and 5 are the concentrations of compounds tested in the biofilm growth assay that reduce the area of the spreading biofilm compared to negative controls by greater than or equal to 85%. Table 2. Compound 1 and its Analogs and their inhibitory concentrations in the biofilm growth assay as detailed in Example I, above

E. coli = assay: as above; type: cell-based; details: for IC85: Escherichia coli, read-out: E. coli
Description: as §1, §2, §3

[1] = Table 2, concentration that reduces the area of the spreading biofilm by >= 85%, read-out: P. aeruginosa
[2] = Table 2, concentration that reduces the area of the spreading biofilm by >= 85%
[3] = Table 1, concentration that reduces the area of the spreading biofilm vs negative controls by >= 85%, > means not effective at this concentration, read-out: P. aeruginosa
[4] = Table 1, concentration that reduces the area of the spreading biofilm vs negative controls by >= 85%, > means not effective at this concentration
[5] = Table 3, concentration that reduces the area of the spreading biofilm by >= 85%, read-out: P. aeruginosa
[6] = Table 3, concentration that reduces the area of the spreading biofilm by >= 85%

`CN(C)c1ccc(C2=C3C4CC(C)(C)CC[C@]4(C(=O)O)CC[C@@]3(C)[C@]3(C)CCC4C(C)(C)c5n[nH]c(N)c5C[C@]4(C)C3C2)cc1` (stereo in doubt) [Compound 10, (4aS,6aS,6bR,13aR)-12-Amino-15-(4-(dimethylamino)phenyl)-2,2,6a,6b,9,9,13a-heptamethyl-2,3,4,4a,5,6,6a,6b,7,8,8a,9,11,13,13a,13b,14,15b-octadecahydro-1H-chryseno[1,2-f]indazole-4a-carboxylic acid] was tested, and the IC85 (P. aeruginosa; [1]) was 0.5 µg/mL (≈ 0.816 µM) and the IC85 (E. coli; [2]) was 1 µg/mL (≈ 1.63 µM).
`C=C(C)[C@@H]1CC[C@]2(CO)CC[C@]3(C)[C@H](CC[C@@H]4[C@@]5(C)CC[C@H](O)C(C)(C)[C@@H]5CC[C@]43C)[C@@H]12` [Betulin, reference compound] was tested, and the IC85 (P. aeruginosa; [3]) was 16 µg/mL (≈ 36.1 µM) and the IC85 (E. coli; [4]) was greater than 16 µg/mL.
Work on `C=C(C)[C@@H]1CC[C@]2(C(=O)O)CC[C@]3(C)[C@H](CC[C@@H]4[C@@]5(C)CC[C@H](O)C(C)(C)[C@@H]5CC[C@]43C)[C@@H]12` [Betulinic acid, reference compound] yielded an IC85 (P. aeruginosa; [3]) greater than 16 µg/mL and an IC85 (E. coli; [4]) greater than 16 µg/mL.
For `CC1(C)CC[C@]2(C(=O)O)CC[C@]3(C)C(=CCC4[C@@]5(C)Cc6cc[nH]c6C(C)(C)C5CC[C@]43C)C2C1` (some centres unmarked) [C], the IC85 (P. aeruginosa; [3]) was 0.5 µg/mL (≈ 1.05 µM) and the IC85 (E. coli; [4]) was 0.5 µg/mL (≈ 1.05 µM).
For `CC1(C)CC[C@]2(C(=O)O)CC[C@]3(C)C(=CCC4[C@@]5(C)Cc6c(n[nH]c6N)C(C)(C)C5CC[C@]43C)C2C1` (stereo partly drawn) [Compound 2, (4aS,6aS,6bR,13aR)-12-Amino-2,2,6a,6b,9,9,13a-heptamethyl-2,3,4,4a,5,6,6a,6b,7,8,8a,9,11,13,13a,13b,14,15b-octadecahydro-1H-chryseno[1,2-f]indazole-4a-carboxylic acid], the “P. aeruginosa” value (P. aeruginosa; [2]) was 0.5 µg/mL and the “E. coli” value (E. coli; [2]) was 1 µg/mL.
`C[C@@H]1c2n[nH]c(N)c2C[C@]2(C)C3CC=C4[C@@H]5CC(C)(C)CC[C@]5(C(=O)O)CC[C@@]4(C)[C@]3(C)CC[C@@H]12` (stereo partly drawn) [Compound 3, (4aS,6aS,6bR,8aS,9S,13aS,15bS)-12-Amino-2,2,6a,6b,9,13a-hexamethyl-2,3,4,4a,5,6,6a,6b,7,8,8a,9,11,13,13a,13b,14,15b-octadecahydro-1H-chryseno[1,2-f]indazole-4a-carboxylic acid] was tested, and the IC85 (P. aeruginosa; [1]) was 0.5 µg/mL (≈ 1.04 µM) and the IC85 (E. coli; [2]) was 1 µg/mL (≈ 2.08 µM).
Compound `CC1=C2[C@@H]3CC(C)(C)CC[C@]3(C(=O)O)CC[C@@]2(C)[C@]2(C)CC[C@H]3C(C)(C)c4n[nH]c(N)c4C[C@]3(C)C2C1` (stereo partly drawn) [Compound 4, (4aS,6aS,6bR,8aR,13aR,15bS)-12-Amino-2,2,6a,6b,9,9,13a,15-octamethyl-2,3,4,4a,5,6,6a,6b,7,8,8a,9,11,13,13a,13b,14,15b-octadecahydro-1H-chryseno[1,2-f]indazole-4a-carboxylic acid] has an IC85 (P. aeruginosa; [1]) of 0.25 µg/mL (≈ 0.492 µM) and an IC85 (E. coli; [2]) of 1 µg/mL (≈ 1.97 µM).
Compound `C/C=C/C1=C2[C@@H]3CC(C)(C)CC[C@]3(C(=O)O)CC[C@@]2(C)[C@]2(C)CC[C@H]3C(C)(C)c4n[nH]c(N)c4C[C@]3(C)C2C1` (stereo partly drawn) [Compound 5, (4aS,6aS,6bR,8aR,13aR,15bS)-12-Amino-2,2,6a,6b,9,9,13a-heptamethyl-15-((E)-prop-1-enyl)-2,3,4,4a,5,6,6a,6b,7,8,8a,9,11,13,13a,13b,14,15b-octadecahydro-1H-chryseno[1,2-f]indazole-4a-carboxylic acid] has an IC85 (P. aeruginosa; [1]) of 0.5 µg/mL (≈ 0.937 µM) and an IC85 (E. coli; [2]) of 1 µg/mL (≈ 1.87 µM).
With `CC1(C)CC[C@]2(C(=O)O)CC[C@]3(C)C(=C(c4cc[nH]c4)CC4[C@@]5(C)Cc6c(n[nH]c6N)C(C)(C)[C@@H]5CC[C@]43C)[C@@H]2C1` (stereo partly drawn) [Compound 6, (4aS,6aS,6bR,8aR,13aR,15bS)-12-Amino-2,2,6a,6b,9,9,13a-heptamethyl-15-(1H-pyrrol-3-yl)-2,3,4,4a,5,6,6a,6b,7,8,8a,9,11,13,13a,13b,14,15b-octadecahydro-1H-chryseno[1,2-f]indazole-4a-carboxylic acid] the IC85 (E. coli; [2]) was 0.25 µg/mL (≈ 0.447 µM).
Compound `CC1(C)CC[C@]2(C(=O)O)CC[C@]3(C)C(=C(c4ccco4)CC4[C@@]5(C)Cc6c(n[nH]c6N)C(C)(C)C5CC[C@]43C)C2C1` (stereo partly drawn) [Compound 7, (4aS,6aS,6bR,13aR)-12-Amino-15-(furan-2-yl)-2,2,6a,6b,9,9,13a-heptamethyl-2,3,4,4a,5,6,6a,6b,7,8,8a,9,11,13,13a,13b,14,15b-octadecahydro-1H-chryseno[1,2-f]indazole-4a-carboxylic acid] has an IC85 (P. aeruginosa; [1]) of 0.25 µg/mL (≈ 0.447 µM) and an IC85 (E. coli; [2]) of 1 µg/mL (≈ 1.79 µM).
In the case of `CC1(C)CC[C@]2(C(=O)O)CC[C@]3(C)C(=C(c4c[nH]c5ccccc45)CC4[C@@]5(C)Cc6c(n[nH]c6N)C(C)(C)[C@@H]5CC[C@]43C)[C@@H]2C1` (stereo partly drawn) [Compound 8, (4aS,6aS,6bR,8aR,13aR,15bS)-12-Amino-15-(1H-indol-3-yl)-2,2,6a,6b,9,9,13a-heptamethyl-2,3,4,4a,5,6,6a,6b,7,8,8a,9,11,13,13a,13b,14,15b-octadecahydro-1H-chryseno[1,2-f]indazole-4a-carboxylic acid], the IC85 (P. aeruginosa; [1]) is reported as 0.25 µg/mL (≈ 0.411 µM) and the IC85 (E. coli; [2]) is reported as 1 µg/mL (≈ 1.64 µM).
Compound `CC1(C)CC[C@]2(C(=O)O)CC[C@]3(C)C(=C(c4c[nH]c(CN5CCOCC5)c4)CC4[C@@]5(C)Cc6c(n[nH]c6N)C(C)(C)[C@@H]5CC[C@]43C)[C@@H]2C1` (stereo partly drawn) [Compound 9, (4aS,6aS,6bR,8aR,13aR,15bS)-12-Amino-2,2,6a,6b,9,9,13a-heptamethyl-15-(5-(morpholinomethyl)-1H-pyrrol-3-yl)-2,3,4,4a,5,6,6a,6b,7,8,8a,9,11,13,13a,13b,14,15b-octadecahydro-1H-chryseno[1,2-f]indazole-4a-carboxylic acid] has an IC85 (P. aeruginosa; [1]) of 0.5 µg/mL (≈ 0.76 µM) and an IC85 (E. coli; [2]) of 1 µg/mL (≈ 1.52 µM).
With `CC1(C)CC[C@]2(C(=O)O)CC[C@]3(C)C(=C(c4ccc5c(c4)CCN5)CC4[C@@]5(C)Cc6c(n[nH]c6N)C(C)(C)C5CC[C@]43C)C2C1` (stereo partly drawn) [Compound 11, (4aS,6aS,6bR,13aR)-12-Amino-15-(indolin-5-yl)-2,2,6a,6b,9,9,13a-heptamethyl-2,3,4,4a,5,6,6a,6b,7,8,8a,9,11,13,13a,13b,14,15b-octadecahydro-1H-chryseno[1,2-f]indazole-4a-carboxylic acid] the IC85 (P. aeruginosa; [1]) was 0.5 µg/mL (≈ 0.818 µM) and the IC85 (E. coli; [2]) was 0.5 µg/mL (≈ 0.818 µM).
Work on `C=CC1=C2[C@@H]3CC(C)(C)CC[C@]3(C(=O)O)CC[C@@]2(C)[C@]2(C)CC[C@H]3C(C)(C)c4n[nH]c(N)c4C[C@]3(C)C2C1` (stereo partly drawn) [Compound 13, (4aS,6aS,6bR,8aR,13aR,15bS)-12-Amino-2,2,6a,6b,9,9,13a-heptamethyl-15-vinyl-2,3,4,4a,5,6,6a,6b,7,8,8a,9,11,13,13a,13b,14,15b-octadecahydro-1H-chryseno[1,2-f]indazole-4a-carboxylic acid] yielded an IC85 (P. aeruginosa; [5]) of 0.5 µg/mL (≈ 0.962 µM) and an IC85 (E. coli; [6]) of 1 µg/mL (≈ 1.92 µM).
Compound `CCC1=C2[C@@H]3CC(C)(C)CC[C@]3(C(=O)O)CC[C@@]2(C)[C@]2(C)CC[C@H]3C(C)(C)c4n[nH]c(N)c4C[C@]3(C)C2C1` (stereo partly drawn) [Compound 14, (4aS,6aS,6bR,8aR,13aR,15bS)-12-Amino-15-ethyl-2,2,6a,6b,9,9,13a-heptamethyl-2,3,4,4a,5,6,6a,6b,7,8,8a,9,11,13,13a,13b,14,15b-octadecahydro-1H-chryseno[1,2-f]indazole-4a-carboxylic acid] has an IC85 (P. aeruginosa; [5]) of 0.5 µg/mL (≈ 0.958 µM) and an IC85 (E. coli; [6]) of 2 µg/mL (≈ 3.83 µM).
Work on `C[C@H]1[C@H](C)CC[C@]2(C(=O)O)CC[C@]3(C)C(=CC[C@@H]4[C@@]5(C)C[C@@H](O)[C@H](O)C(C)(C)[C@@H]5CC[C@]43C)[C@H]12` [Corosolic acid, reference compound] yielded an IC85 (P. aeruginosa; [3]) of 4 µg/mL (≈ 8.46 µM).
In the case of `CC1(C)CC[C@]2(C(=O)O)CC[C@]3(C)C(=CC[C@@H]4[C@@]5(C)C[C@@H](O)[C@H](O)C(C)(C)[C@@H]5CC[C@]43C)[C@@H]2C1` [Maslinic acid, reference compound], the IC85 (P. aeruginosa; read-out: P. aeruginosa (µg/ml)) is reported as 4 µg/mL (≈ 8.46 µM).
For `C[C@H]1[C@H](C)CC[C@]2(C)CC[C@]3(C)C(=CC[C@@H]4[C@@]5(C)CC[C@H](O)C(C)(C)[C@@H]5CC[C@]43C)[C@H]12` [alpha-Amyrin, reference compound], the “P. aeruginosa” value (P. aeruginosa; [4]) was greater than 32 µg/mL.
